In US20250326732A1 (Pretzel Therapeutics, Inc., priority 2021, published 2025) one finds IC50 data, which are given here for 42 compounds.

The term IC50 denotes the concentration that gives 50% inhibition. High values mean weaker potency in that assay, low ones greater potency in that assay.

Sequence of POLRMT (O00411 42-1230): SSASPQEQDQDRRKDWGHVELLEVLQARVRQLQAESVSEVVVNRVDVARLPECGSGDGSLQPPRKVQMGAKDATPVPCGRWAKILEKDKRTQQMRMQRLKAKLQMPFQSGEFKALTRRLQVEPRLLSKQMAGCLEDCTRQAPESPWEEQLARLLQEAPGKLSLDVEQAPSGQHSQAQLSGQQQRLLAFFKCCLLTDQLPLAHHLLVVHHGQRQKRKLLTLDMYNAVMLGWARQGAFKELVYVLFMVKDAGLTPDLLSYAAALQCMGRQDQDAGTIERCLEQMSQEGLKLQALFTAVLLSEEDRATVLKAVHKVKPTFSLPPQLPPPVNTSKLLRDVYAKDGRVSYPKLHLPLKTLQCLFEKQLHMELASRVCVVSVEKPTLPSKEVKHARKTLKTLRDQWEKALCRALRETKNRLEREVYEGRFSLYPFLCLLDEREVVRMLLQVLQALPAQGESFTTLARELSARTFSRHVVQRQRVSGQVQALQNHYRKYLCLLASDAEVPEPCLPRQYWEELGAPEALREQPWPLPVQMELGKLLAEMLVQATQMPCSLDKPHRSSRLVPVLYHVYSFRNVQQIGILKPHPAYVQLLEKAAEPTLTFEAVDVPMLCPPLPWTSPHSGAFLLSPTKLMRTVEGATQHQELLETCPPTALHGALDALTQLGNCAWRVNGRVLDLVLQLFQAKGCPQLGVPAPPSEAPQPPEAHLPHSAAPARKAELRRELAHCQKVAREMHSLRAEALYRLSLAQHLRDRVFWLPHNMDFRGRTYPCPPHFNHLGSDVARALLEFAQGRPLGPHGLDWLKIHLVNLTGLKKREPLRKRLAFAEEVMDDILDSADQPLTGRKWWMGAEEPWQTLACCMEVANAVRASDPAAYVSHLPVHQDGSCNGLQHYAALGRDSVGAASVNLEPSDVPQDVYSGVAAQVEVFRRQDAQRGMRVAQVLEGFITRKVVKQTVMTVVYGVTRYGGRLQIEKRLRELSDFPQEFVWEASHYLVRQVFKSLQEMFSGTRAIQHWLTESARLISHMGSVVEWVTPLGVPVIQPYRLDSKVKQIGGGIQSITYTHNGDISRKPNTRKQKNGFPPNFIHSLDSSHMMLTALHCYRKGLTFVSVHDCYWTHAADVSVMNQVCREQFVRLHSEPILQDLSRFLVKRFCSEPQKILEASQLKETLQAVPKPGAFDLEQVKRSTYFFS

This test addresses POLRMT (Homo sapiens (Human), UniProt O00411). Kind of test: homogeneous TR-FRET assay of mitochondrial transcription (inhibition of POLRMT). The test is classed as biochemical. The following applies: 7.5 nM POLRMT, 15 nM TFB2M, 30 nM TFAM, 0.5 nM DNA template, 500 μM NTPs, 37° C. for 60 minutes. In outline:
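POLRMT transcription from linearized pUC-LSP DNA template; RNA product detected by hybridization of ATTO647 acceptor (1 nM) and biotinylated donor (3 nM) probes plus Europium-streptavidin. Reaction stopped with EDTA/700 mM NaCl buffer, pH 7.5.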
On the technique in general: Time-resolved FRET reads energy transfer from a long-lived donor to a nearby acceptor.
Compound `Cc1ccccc1-c1cc(=O)oc2cc(NC(C)C(N)=O)ccc12` (single isomer, unassigned) [Example 190, 2-((2-oxo-4-(o-tolyl)-2H-chromen-7-yl)amino)propanamide] gave a 50% inhibitory concentration (IC50) of 800 nM.

Compound `Cc1ccccc1-c1cc(=O)oc2cc(NCC(C)C(=O)O)ccc12` (single isomer, unassigned) [Example 155-1, 2-methyl-3-((2-oxo-4-(o-tolyl)-2H-chromen-7-yl)amino)propanoic acid] displayed an IC50 of 500 nM.

On to `Cc1ccccc1-c1cc(=O)oc2cc(C(=O)N(C)C3CCOCC3)ccc12` [Example 111, N-methyl-2-oxo-N-(tetrahydro-2H-pyran-4-yl)-4-(o-tolyl)-2H-chromene-7-carboxamide], for which inhibition was half-maximal at 64000 nM (IC50).

The compound `CNC(=O)[C@@H]1C[C@@H]1c1ccc2c(-c3ccccc3C)cc(=O)oc2c1` (relative stereo) [Example 231, (cis)-N-methyl-2-(2-oxo-4-(o-tolyl)-2H-chromen-7-yl)cyclopropane-1-carboxamide] came in with an IC50 of 400 nM.

In the case of `Cc1ccccc1-c1cc(=O)oc2cc(CN(C)C(=O)N3CCC[C@@H](C(=O)O)C3)ccc12` [Example 222, (R)-1-(methyl((2-oxo-4-(o-tolyl)-2H-chromen-7-yl)methyl)carbamoyl)piperidine-3-carboxylic acid], the IC50 was 2000 nM.

With `CN(CC(=O)O)c1ccc2c(-c3ccc(F)cc3Cl)cc(=O)oc2c1` [Example 105, N-(4-(2-chloro-4-fluorophenyl)-2-oxo-2H-chromen-7-yl)-N-methylglycine], the IC50 turned out to be 500 nM.

Turning to `COC(=O)C(C)Cc1ccc2c(-c3ccc(F)cc3Cl)cc(=O)oc2c1` (stereo not drawn) [Example 15, methyl 3-(4-(2-chloro-4-fluorophenyl)-2-oxo-2H-chromen-7-yl)-2-methylpropanoate], the IC50 is 2000 nM.

`Cc1ccccc1-c1cc(=O)oc2cc(NC(C)(C)C(N)=O)ccc12` [Example 210, 2-methyl-2-((2-oxo-4-(o-tolyl)-2H-chromen-7-yl)amino)propanamide] displayed an IC50 of 3000 nM.

In turn, `COC[C@@H]1CCN(C(=O)c2ccc3c(-c4ccccc4C)cc(=O)oc3c2)C1` [Example 116, (R)-7-(3-(methoxymethyl)pyrrolidine-1-carbonyl)-4-(o-tolyl)-2H-chromen-2-one] registered an IC50 of 45000 nM.

With `COc1ccccc1-c1cc(=O)oc2cc(NC(C)=O)ccc12` [Example 29, N-(4-(2-methoxyphenyl)-2-oxo-2H-chromen-7-yl)acetamide], the IC50 was greater than 100000 nM.

Compound `Cc1ccccc1-c1cc(=O)oc2cc(C(=O)Nc3ccccc3)ccc12` [Example 35, 2-oxo-N-phenyl-4-(o-tolyl)-2H-chromene-7-carboxamide] gave a half-inhibitory concentration (IC50) of 2000 nM.

Compound `Cc1ccccc1-c1cc(=O)oc2cc(C(C)CC(=O)N3CCC[C@H](C(=O)O)C3)ccc12` (single isomer, unassigned) [Example 81] yielded an IC50 of 1000 nM.

In the case of `COCC(Cc1ccc2c(-c3ccccc3C)cc(=O)oc2c1)C(N)=O` (single isomer, unassigned) [Example 208, 3-methoxy-2-((2-oxo-4-(o-tolyl)-2H-chromen-7-yl)methyl)propanamide], the IC50 came to 3000 nM.

Compound `Cc1ccccc1-c1cc(=O)oc2cc(CC(C)C(=O)N3CC[C@H](C(=O)O)C3)ccc12` (single isomer, unassigned) [Example 99] displayed an IC50 of 400 nM.

In turn, `Cc1ccccc1-c1cc(=O)oc2cc(C(=O)N(C)Cc3nccn3C)ccc12` [Example 114, N-methyl-N-((1-methyl-1H-imidazol-2-yl)methyl)-2-oxo-4-(o-tolyl)-2H-chromene-7-carboxamide] returned an IC50 of 36000 nM.

For the compound `COCC(C#N)Cc1ccc2c(-c3ccccc3C)cc(=O)oc2c1` (stereo not drawn) [Example 201, 3-methoxy-2-((2-oxo-4-(o-tolyl)-2H-chromen-7-yl)methyl)propanenitrile], 2000 nM corresponded to half-maximal inhibition (IC50).

The compound `CC(=O)NC1CCCN(C(=O)c2ccc3c(-c4ccccc4C)cc(=O)oc3c2)C1` (single isomer, unassigned) [Example 175, N-(1-(2-oxo-4-(o-tolyl)-2H-chromene-7-carbonyl)piperidin-3-yl)acetamide] displayed an IC50 greater than 100000 nM.

As to `Cc1ccccc1-c1cc(=O)oc2cc(N[C@@H](CC(C)C)C(=O)OC(C)(C)C)ccc12` [Example 60, tert-butyl (2-oxo-4-(o-tolyl)-2H-chromen-7-yl)-L-leucinate], the 50% inhibitory concentration (IC50) is 8000 nM.

`CN(C)C(=O)N(C)Cc1ccc2c(-c3ccc(F)cc3Cl)cc(=O)oc2c1` [Example 06, 1-((4-(2-chloro-4-fluorophenyl)-2-oxo-2H-chromen-7-yl)methyl)-1,3,3-trimethylurea] returned an IC50 of 3000 nM.

As to `Cc1ccccc1-c1cc(=O)oc2cc(N(C)CC(=O)OC(C)(C)C)ccc12` [Example 70, tert-butyl N-methyl-N-(2-oxo-4-(o-tolyl)-2H-chromen-7-yl)glycinate], inhibition was half-maximal at 40 nM (IC50).

Take `Cc1ccccc1-c1cc(=O)oc2cc(N(C)CC(=O)NCCN(C)C)ccc12` [Example 221, N-(2-(dimethylamino)ethyl)-2-(methyl(2-oxo-4-(o-tolyl)-2H-chromen-7-yl)amino)acetamide]: half-maximal inhibition (IC50) required 2000 nM.

In the case of `O=c1cc(-c2ccc(F)cc2Cl)c2ccc(CO)cc2o1` [Example 13, 4-(2-chloro-4-fluorophenyl)-7-(hydroxymethyl)-2H-chromen-2-one], half-maximal inhibition (IC50) was put at 10000 nM.

Turning to `Cc1ccccc1-c1cc(=O)oc2cc(CC(C)C(=O)N3CCC[C@H](C#N)C3)ccc12` (single isomer, unassigned) [Example 84], the IC50 was 32000 nM.

Compound `COCC(C(N)=O)N(C)c1ccc2c(-c3ccccc3C)cc(=O)oc2c1` (stereo not drawn) [Example 202, 3-methoxy-2-(methyl(2-oxo-4-(o-tolyl)-2H-chromen-7-yl)amino)propanamide] returned an IC50 of 2000 nM.

On to `Cc1ccccc1-c1cc(=O)oc2cc(NCc3ncco3)ccc12` [Example 166, 7-((oxazol-2-ylmethyl)amino)-4-(o-tolyl)-2H-chromen-2-one], for which half-maximal inhibition (IC50) required 5000 nM.

The compound `Cc1ccccc1-c1cc(=O)oc2cc(NCc3ccccc3)ccc12` [Example 107, 7-(benzylamino)-4-(o-tolyl)-2H-chromen-2-one] showed a half-inhibitory concentration (IC50) of 3000 nM.

For `Cc1ccccc1-c1cc(=O)oc2cc(CNC(=O)N3CCC(C(=O)O)CC3)ccc12` [Example 151, 1-(((2-oxo-4-(o-tolyl)-2H-chromen-7-yl)methyl)carbamoyl)piperidine-4-carboxylic acid], inhibition was half-maximal at 3000 nM (IC50).

Consider `Cc1ccccc1-c1cc(=O)oc2cc(NCCC(=O)O)ccc12` [Example 145, 3-((2-oxo-4-(o-tolyl)-2H-chromen-7-yl)amino)propanoic acid], for which half-maximal inhibition (IC50) was put at 4000 nM.

For the compound `CNC(=O)C1CC1c1ccc2c(-c3ccccc3C)cc(=O)oc2c1` (stereo not drawn) [Example 135, chiral-N-methyl-2-(2-oxo-4-(o-tolyl)-2H-chromen-7-yl)cyclopropane-1-carboxamide], the IC50 stood at 9000 nM.

`CNC(=O)CCN(C)c1ccc2c(-c3ccccc3C)cc(=O)oc2c1` [Example 140, N-methyl-3-(methyl(2-oxo-4-(o-tolyl)-2H-chromen-7-yl)amino)propanamide] displayed an IC50 of 900 nM.

The compound `CCOC(=O)[C@@H](C)Nc1ccc2c(-c3ccc(F)cc3Cl)cc(=O)oc2c1` [Example 26, ethyl (4-(2-chloro-4-fluorophenyl)-2-oxo-2H-chromen-7-yl)-D-alaninate] had an IC50 of 400 nM.

`Cc1ccccc1-c1cc(=O)oc2cc(C(=O)N(C)C3CCCOC3)ccc12` (stereo not drawn) [Example 117, N-methyl-2-oxo-N-(tetrahydro-2H-pyran-3-yl)-4-(o-tolyl)-2H-chromene-7-carboxamide] displayed an IC50 of 65000 nM.

`Cc1ccccc1-c1cc(=O)oc2cc(N(C)CC(=O)OC(C)C)ccc12` [Example 141, isopropyl N-methyl-N-(2-oxo-4-(o-tolyl)-2H-chromen-7-yl)glycinate] returned an IC50 of 20 nM.

`Cc1ccccc1-c1cc(=O)oc2cc(CC(C)C(=O)N3CCCCC3)ccc12` (single isomer, unassigned) [Example 62, 7-(2-methyl-3-oxo-3-(piperidin-1-yl)propyl)-4-(o-tolyl)-2H-chromen-2-one] registered an IC50 of 80 nM.

The compound `Cc1cc(O)c2c(-c3ccc(F)cc3)cc(=O)oc2c1` [Example 12, 4-(4-fluorophenyl)-5-hydroxy-7-methyl-2H-chromen-2-one] showed an IC50 greater than 100000 nM.

The compound `Cc1ccccc1-c1cc(=O)oc2cc(C(=O)NC3CCCC3)ccc12` [Example 36, N-cyclopentyl-2-oxo-4-(o-tolyl)-2H-chromene-7-carboxamide] registered an IC50 of 2000 nM.

`CNC(=O)C1CC1c1ccc2c(-c3ccccc3C)cc(=O)oc2c1` (stereo not drawn) [Example 136, chiral-N-methyl-2-(2-oxo-4-(o-tolyl)-2H-chromen-7-yl)cyclopropane-1-carboxamide] registered an IC50 of 200 nM.

`Cc1ccccc1-c1cc(=O)oc2cc(N(C)Cc3ccn[nH]3)ccc12` [Example 178, 7-(((1H-pyrazol-5-yl)methyl)(methyl)amino)-4-(o-tolyl)-2H-chromen-2-one] showed a concentration for half-maximal inhibition (IC50) of 50 nM.

Turning to `CN(Cc1ccc2c(-c3ccc(F)cc3Cl)cc(=O)oc2c1)C(=O)N1CCC[C@H](C(=O)O)C1` [Example 08, (S)-1-(((4-(2-chloro-4-fluorophenyl)-2-oxo-2H-chromen-7-yl)methyl)(methyl)carbamoyl)piperidine-3-carboxylic acid], the IC50 amounted to 1000 nM.

`Cc1ccccc1-c1cc(=O)oc2cc(CO)ccc12` [Example 09, 7-(hydroxymethyl)-4-(o-tolyl)-2H-chromen-2-one]: the midpoint of inhibition, the IC50, lay at 10000 nM.

In turn, `CN(CCC(=O)O)c1ccc2c(-c3ccccc3Cl)cc(=O)oc2c1` [Example 132, 3-((4-(2-chlorophenyl)-2-oxo-2H-chromen-7-yl)(methyl)amino)propanoic acid] showed a half-inhibitory concentration (IC50) of 1000 nM.

`COC(=O)C1CN(C(=O)c2ccc3c(-c4ccccc4C)cc(=O)oc3c2)C1` [Example 182, methyl 1-(2-oxo-4-(o-tolyl)-2H-chromene-7-carbonyl) azetidine-3-carboxylate] returned an IC50 of 12000 nM.
